Measurements as given in PubChem BioAssay AID1963970 (Molecular Pharmacology Branch, DTP, NCI, 2024).
Values joined by “and” are separate entries in the source; they are usually repeats but may differ in a detail not shown here. Identical values can stand only once. Values belong to the compound of their own block, whether it stands above or below them.

Tested on: 931267-113-T-J1-PDC multicell spheroid viability
Assay: Anticancer human tumor 931267-113-T-J1-PDC patient-derived colon adenocarcinoma cell line growth inhibition [PI3K]
Settings: for viability, T/C: stronger effect = lower value
From the text: Combinatorial screen of targeted agents with the PI3K inhibitors inavolisib, alpelisib, duvelisib, and copanlisib in multi-cell type tumor spheroids
A high-throughput screen of multi-cell type tumor spheroids was designed to identify active combinations of targeted small molecules and PI3K pathway inhibitors. Complex spheroids include a stromal component modeled by human endothelial cells (HUVEC) and fibroblasts modeled by human mesenchymal stem cells (MSCs). The concentration ranges selected for each drug and investigational agent were based upon clinically achievable concentrations if the clinical Cmax of the agent was known.
Compounds. The drugs and investigational agents: inavolisib (NSC800729), alpelisib (NSC765974), duvelisib (NSC772469), copanlisib (NSC816437), ipatasertib (NSC767898), afuresertib (NSC778305), talazoparib (NSC767125), sapanisertib (NSC764658), selumetinib (NSC741078), tovorafenib (DAY101, NSC766906), vemurafenib (NSC761431), ravoxertinib (NSC781343), sotorasib (NSC818433), MRTX1133 (NSC 836407), abemaciclib (NSC 768073), palbociclib (NSC758247), venetoclax (NSC 766270), SY5609 (NSC837396), enzalutamide (NSC755605), and darolutamide (NSC825331), were obtained from the National Cancer Institute (NCI) Developmental Therapeutics Program Chemical Repository. The FDA-approved anticancer drug set is available from the NCI Developmental Therapeutics Program. […] The stock solutions were prepared in dimethyl sulfoxide (DMSO, Sigma-Aldrich, St. Louis, MO, cat. D2650) at 800-fold the tested concentration and stored at -70 degrees C prior to their use. All drugs and investigational agents were tested over a range starting from a high concentration at or near the clinical Cmax and decreasing in half-log increments. If the clinical Cmax for an agent had not been determined, the highest concentration tested was 10 microM.
Cell Culture. All cells were maintained in an incubator at 37 degrees C and 5% CO2 with 95% humidity. The PDC lines were cultured according to standard operating procedures established by the NCI PDMR (https://pdmr.cancer.gov/sops/default.htm). All PDCs were thawed and cultured in Matrigel-coated flasks prepared with a working solution of 1X Ham's F-12 nutrient mix, without supplementation (Invitrogen, Waltham, MA, cat. 11765054), 100 U/mL penicillin-streptomycin (Invitrogen, cat. 15140122), and 2.5% Matrigel (Corning Inc., Corning, NY, cat. 354248) for the first three passages. The 354836-022-R-J1-PDC, 475296-252-R-J1-PDC, and 997726-040-R-J2-PDC lines were cultured in 6A media, which includes advanced DMEM/F-12 (Thermo Fisher Scientific, cat. 12634028), 10 mM HEPES (Thermo Fisher Scientific, cat. 15630080), 1X GlutaMAX supplement (Thermo Fisher Scientific, cat. 35050061), 0.1 mg/mL primocin (InvivoGen, San Diego, CA, cat. ant-pm-2), 10% defined fetal bovine serum, heat inactivated (HyClone Laboratories Inc., Logan, UT, cat. SH30070.03HI), 50% L-WRN conditioned media (ATCC, cat. CRL-3276), 1.25 mM N-Acetyl-L-cysteine (Sigma-Aldrich, cat. A9165), 10 mM nicotinamide (Sigma-Aldrich, cat. N0636), 1X B-27 supplement (Thermo Fisher Scientific, cat. 17504044), 1X N-2 supplement (Thermo Fisher Scientific, cat. 17502048), and 10 microM Y-27632 dihydrochloride (Tocris Bioscience, Bristol, United Kingdom, cat. 1254). The 624824-186-R-J2-PDC line was cultured in 6C/Colon 1B media, which includes all 6A media components plus 50 ng/mL human EGF recombinant protein (Thermo Fisher Scientific, cat. PHG0311). […]
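Further: viability read 7 days after compound addition.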

SMILES: CC(Cn1ccc(-c2ccc(C#N)c(Cl)c2)n1)NC(=O)c1cc(C(C)O)[nH]n1 (stereo unspecified)
- viability, T/C (compound 0.0316 µM): 109% and 95.2% and 110%
- viability, T/C (compound 0.1 µM): 107% and 94.8% and 102%
- viability, T/C (compound 0.316 µM): 109% and 108% and 101%
- viability, T/C (compound 1 µM): 117% and 108% and 106%
- viability, T/C (compound 3.16 µM): 98.7% and 110% and 107%
- viability, T/C (compound 10 µM): 103% and 102% and 108%
- IC50 (curve of compound): > 10000 nM

SMILES: CC1(C)CCC(CN2CCN(c3ccc(C(=O)NS(=O)(=O)c4ccc(NCC5CCOCC5)c([N+](=O)[O-])c4)c(Oc4cnc5[nH]ccc5c4)c3)CC2)=C(c2ccc(Cl)cc2)C1
- viability, T/C (compound 0.0316 µM): 97.9% [middle of 4 runs]
- viability, T/C (compound 0.1 µM): 95.5% [middle of 4 runs]
- viability, T/C (compound 0.316 µM): 106% [middle of 4 runs]
- viability, T/C (compound 1 µM): 103% [middle of 4 runs]
- viability, T/C (compound 3.16 µM): 93.7% and 104% and 105% (2×)

SMILES: C[C@@H](NC(=O)c1ncnc(N)c1Cl)c1ncc(C(=O)Nc2cc(C(F)(F)F)c(Cl)cn2)s1
- viability, T/C (compound 0.0316 µM): 117% [middle of 4 runs]
- viability, T/C (compound 0.1 µM): 112% [middle of 4 runs]
- viability, T/C (compound 0.316 µM): 111% [middle of 4 runs]
- viability, T/C (compound 1 µM): 114% [middle of 4 runs]
- viability, T/C (compound 3.16 µM): 102% (2×) and 112% and 103%
- viability, T/C (compound 10 µM): 78% [middle of 4 runs]
- IC50 (curve of compound): > 10000 nM

SMILES: Cn1ncc(Cl)c1-c1cc(C(=O)NC(CN)Cc2cccc(F)c2)sc1Cl (stereo unspecified)
- viability, T/C (compound 0.0316 µM): 105% [middle of 4 runs]
- viability, T/C (compound 0.1 µM): 98.2% [middle of 4 runs]
- viability, T/C (compound 0.316 µM): 96.1% [middle of 4 runs]
- viability, T/C (compound 1 µM): 87.7% [middle of 4 runs]
- viability, T/C (compound 3.16 µM): 77.1% [middle of 4 runs]
- viability, T/C (compound 10 µM): 39.5% [middle of 4 runs]
- IC50 (curve of compound): 7.22 µM [middle of 4 runs]

SMILES: Cn1nccc1Nc1nccc(-c2ccn(C(CO)c3ccc(Cl)c(F)c3)c(=O)c2)n1 (stereo unspecified)
- viability, T/C (compound 0.0316 µM): 100% [middle of 4 runs]
- viability, T/C (compound 0.1 µM): 91.3% [middle of 4 runs]
- viability, T/C (compound 0.316 µM): 90.2% [middle of 4 runs]
- viability, T/C (compound 1 µM): 74.1% [middle of 4 runs]
- viability, T/C (compound 3.16 µM): 67.2% [middle of 4 runs]
- viability, T/C (compound 10 µM): 40.4% [middle of 4 runs]

SMILES: Cn1cnc2c(F)c(Nc3ccc(Br)cc3Cl)c(C(=O)NOCCO)cc21 + CC(Nc1ccc2c(c1)OCCn1cc(N3C(=O)OCC3C(F)F)nc1-2)C(N)=O
- IC50 (curve of first compound, second compound 0.00316 µM): 119 nM
- IC50 (curve of first compound, second compound 0.01 µM): 99.7 nM
- IC50 (curve of first compound, second compound 0.0316 µM): 80.1 nM
- IC50 (curve of first compound, second compound 0.1 µM): 54.6 nM
- IC50 (curve of first compound, second compound 0.316 µM): 36.4 nM
- IC50 (curve of first compound, second compound 1 µM): 19.8 nM
- viability, T/C (second compound 0.00316 µM, first compound 0.00949 µM): 69.8%
- viability, T/C (second compound 0.00316 µM, first compound 0.03 µM): 71.2%
- viability, T/C (second compound 0.00316 µM, first compound 0.0949 µM): 52.1%
- viability, T/C (second compound 0.00316 µM, first compound 0.3 µM): 33.3%
- viability, T/C (second compound 0.00316 µM, first compound 0.949 µM): 21.4%
- viability, T/C (second compound 0.00316 µM, first compound 3 µM): 11.4%
- viability, T/C (second compound 0.01 µM, first compound 0.00949 µM): 91.1%
- viability, T/C (second compound 0.01 µM, first compound 0.03 µM): 74.7%
- viability, T/C (second compound 0.01 µM, first compound 0.0949 µM): 50%
- viability, T/C (second compound 0.01 µM, first compound 0.3 µM): 31%
- viability, T/C (second compound 0.01 µM, first compound 0.949 µM): 15.3%
- viability, T/C (second compound 0.01 µM, first compound 3 µM): 10.8%
- viability, T/C (second compound 0.0316 µM, first compound 0.00949 µM): 89.6%
- viability, T/C (second compound 0.0316 µM, first compound 0.03 µM): 69.5%
- viability, T/C (second compound 0.0316 µM, first compound 0.0949 µM): 47.9%
- viability, T/C (second compound 0.0316 µM, first compound 0.3 µM): 25.2%
- viability, T/C (second compound 0.0316 µM, first compound 0.949 µM): 15.2%
- viability, T/C (second compound 0.0316 µM, first compound 3 µM): 9.45%
- viability, T/C (second compound 0.1 µM, first compound 0.00949 µM): 75.9%
- viability, T/C (second compound 0.1 µM, first compound 0.03 µM): 61.8%
- viability, T/C (second compound 0.1 µM, first compound 0.0949 µM): 39.3%
- viability, T/C (second compound 0.1 µM, first compound 0.3 µM): 21.3%
- viability, T/C (second compound 0.1 µM, first compound 0.949 µM): 15.2%
- viability, T/C (second compound 0.1 µM, first compound 3 µM): 8.34%
- viability, T/C (second compound 0.316 µM, first compound 0.00949 µM): 78.3%
- viability, T/C (second compound 0.316 µM, first compound 0.03 µM): 53.9%
- viability, T/C (second compound 0.316 µM, first compound 0.0949 µM): 31.3%
- viability, T/C (second compound 0.316 µM, first compound 0.3 µM): 17.2%
- viability, T/C (second compound 0.316 µM, first compound 0.949 µM): 10.9%
- viability, T/C (second compound 0.316 µM, first compound 3 µM): 6.16%
- viability, T/C (second compound 1 µM, first compound 0.00949 µM): 63.1%
- viability, T/C (second compound 1 µM, first compound 0.03 µM): 42%
- viability, T/C (second compound 1 µM, first compound 0.0949 µM): 28.7%
- viability, T/C (second compound 1 µM, first compound 0.3 µM): 15.9%
- viability, T/C (second compound 1 µM, first compound 0.949 µM): 10.3%
- viability, T/C (second compound 1 µM, first compound 3 µM): 4.28%

Continued, in another order:

- IC50 (curve of compound): 670 nM [middle of 4 runs]
SMILES: C#Cc1c(F)ccc2cc(O)cc(-c3ncc4c(N5CC6CCC(C5)N6)nc(OCC56CCCN5CC(F)C6)nc4c3F)c12 (stereo unspecified)
- viability, T/C (compound 0.0316 µM): 85% [middle of 4 runs]
- viability, T/C (compound 0.1 µM): 71.4% [middle of 4 runs]
- viability, T/C (compound 0.316 µM): 58.2% [middle of 4 runs]
- viability, T/C (compound 1 µM): 44.2% [middle of 4 runs]
- viability, T/C (compound 3.16 µM): 36.2% [middle of 4 runs]
- viability, T/C (compound 10 µM): 24% and 25.4% and 23.7% (2×)

- IC50 (curve of compound): > 10000 nM
SMILES: C=CC(=O)N1CCN(c2nc(=O)n(-c3c(C)ccnc3C(C)C)c3nc(-c4c(O)cccc4F)c(F)cc23)C(C)C1 (stereo unspecified)
- viability, T/C (compound 0.0316 µM): 119% and 104% (2×) and 102%
- viability, T/C (compound 0.316 µM): 106% [middle of 4 runs]
- viability, T/C (compound 1 µM): 109% [middle of 4 runs]
- viability, T/C (compound 3.16 µM): 108% and 110% (2×) and 107%
- viability, T/C (compound 10 µM): 104% and 105% (2×) and 99.7%

- IC50 (curve of compound): > 10000 nM
SMILES: CC1(C)CCC(Nc2ncc(C(F)(F)F)c(-c3c[nH]c4c(P(C)(C)=O)c(C#N)ccc34)n2)CN1 (stereo unspecified)
- viability, T/C (compound 0.0316 µM): 107% [middle of 4 runs]
- viability, T/C (compound 0.1 µM): 102% [middle of 4 runs]
- viability, T/C (compound 0.316 µM): 89.3% [middle of 4 runs]
- viability, T/C (compound 1 µM): 85.7% [middle of 4 runs]
- viability, T/C (compound 10 µM): 64.5% [middle of 4 runs]

- IC50 (curve of compound): 6.15 µM [middle of 4 runs]
SMILES: CCCS(=O)(=O)Nc1ccc(F)c(C(=O)c2c[nH]c3ncc(-c4ccc(Cl)cc4)cc23)c1F
- viability, T/C (compound 0.0316 µM): 102% (2×) and 106% and 94%
- viability, T/C (compound 0.1 µM): 116% (2×) and 93.5% and 96.7%
- viability, T/C (compound 0.316 µM): 109% [middle of 4 runs]
- viability, T/C (compound 1 µM): 129% [middle of 4 runs]
- viability, T/C (compound 10 µM): 5.21% [middle of 4 runs]

- IC50 (curve of compound): > 10000 nM
SMILES: CNC(=O)c1ccc(N2C(=S)N(c3ccc(C#N)c(C(F)(F)F)c3)C(=O)C2(C)C)cc1F
- viability, T/C (compound 0.0316 µM): 104% [middle of 4 runs]
- viability, T/C (compound 0.1 µM): 103% [middle of 4 runs]
- viability, T/C (compound 0.316 µM): 98.2% [middle of 4 runs]
- viability, T/C (compound 1 µM): 101% [middle of 4 runs]
- viability, T/C (compound 3.16 µM): 102% and 108% (2×) and 105%
- viability, T/C (compound 10 µM): 108% and 105% (2×) and 93.6%
